System: NFATC2
Assay: NFAT mobility shifting assay in Jurkat T cells
Type: cell-based
Details: PMA and ionomycin
Description: In FIG. 2A, a luciferase reporter assay was performed to measure NFAT transcriptional activity. Jurkat T cells expressing GST-tagged peptides were treated with PMA and ionomycin for activation. Jurkat T cells expressing only GST were used as negative controls, and cells treated with 0.5 μM FK506 were used as positive controls (n=3). In FIG. 2B, an NFAT mobility shifting assay was performed using Jurkat T cells expressing HA-mCherry-tagged peptides. For dephosphorylation of NFATC2, Jurkat T cells were treated with PMA and ionomycin for 2 hours. In FIG. 2C, the hyperphosphorylated and hypophosphorylated NFATC2 of FIG. 2B was measured using ImageJ, and the hypo/hyper ratio was calculated (n=7). In FIG. 2D, snapshot images of the indicated peptides and activated Jurkat T cells expressing tNFATC2 were obtained using a confocal microscope. Expression and intracellular localization of peptides and tNFATC2 are indicated by mCherry (red) and EGFP (green), respectively. […] In FIG. 2E, tNFATC2 located in the nucleus was measured by calculating a ratio at which Hoechst (M1) and EGFP (M2) were present together. […] The data were repeated independently as many times as described and are expressed as means±standard deviation. Statistical differences were determined using two-sided Student's t-test (A, C) or one-way analysis of variance (E). *** p<0.001, NC: negative control. […]

Row | Molecule | NFATC2 band shift (dephosphorylation)
1 | C=CC[C@@H]1/C=C(\C)C[C@H](C)C[C@H](OC)[C@H]2O[C@@](O)(C(=O)C(=O)N3CCCC[C@H]3C(=O)O[C@H](/C(C)=C/[C@@H]3CC[C@@H](O)[C@H](OC)C3)[C@H](C)[C@@H](O)CC1=O)[C@H](C)C[C@@H]2OC [FK506, Tacrolimus, reference compound] | significantly inhibited NFATC2 band shift
2 | PEITVTPPTP [CABIN1-L-1-2] | significantly inhibited NFATC2 band shift

Reference: US20240376163A1, “PEPTIDE FOR INHIBITING CALCINEURIN AND USE THEREOF” (Seoul National University R&DB Foundation, priority 2023, published 2024)
